Results: patent publication US20260183320A1, “METHOD FOR TREATING CANCER BY COMBINING ALKYLATING AGENT PRODRUG AND CELL CYCLE INHIBITOR” (ASCENTAWITS PHARMACEUTICALS, LTD., priority 2022, published 2026)

How the values were obtained:
[1] = system: p53-deficient (HT29) cell line; assay: CTG cell proliferation assay, HT29 cell line; format: cell-based; details: for IC50: Homo sapiens, 72 h
Experimental: (§1) Each CTG cell proliferation assay included the steps as follows: • 1) An H460 or HT29 cell suspension was added to a 96-well plate at 100 μL per well so that each well contained 2000 or 10000 cells. • 2) The cells were incubated overnight at 37° C. in an incubator with 5% CO2. • 3) Treatment with Compounds
(§2) Combination therapy: 1 μL of adavosertib (at four concentrations), AZD7762 (at four concentrations), palbociclib (at four concentrations) or ceralasertib (at three concentrations) was added to each well and shaken gently until homogeneous mixing.
(§3) 7) Chemiluminescence was read for 1000 ms on a multimode microplate reader. • 8) IC50 (half-maximal inhibitory concentration) values of the compounds were calculated using the GraphPad Prism 5 software. 1.

[2] = system: wild-type p53-expressing (H460) cell line; assay: CTG cell proliferation assay, H460 cell line; format: cell-based; details: for IC50: Homo sapiens, 72 h
Experimental: as §1, §2, §3

[3] = HT29 (p53-deficient), various concentrations, also low
[4] = H460 (wild-type p53), all concentrations
[5] = H460 (wild-type p53), both drugs at low concentrations

For `O=[N+]([O-])c1ccc(C(OP(=O)(N2CC2)N2CC2)C(F)(F)F)cc1Oc1ccc(-c2ccc(F)cc2)c(F)c1` (stereo not shown) [AST], the “additive cytotoxic effect in combination therapy with palbociclib” value (“additive cytotoxic effect … with palbociclib” for short) ([1]; HT29 (p53-deficient), drugs at low concentrations) was “certain additive cytotoxic effects”, the “additive cytotoxic effect in combination therapy with ceralasertib” value (shortened to “additive cytotoxic effect … with ceralasertib”) ([1]; HT29 (p53-deficient), various concentrations) was “significant additive cytotoxic effects” and the “additive cytotoxic effect in combination therapy with AZD7762” value (“additive cytotoxic effect … with AZD7762” for short) [1, 3] was “significant additive cytotoxic effects”. For the same molecule, the “additive cytotoxic effect in combination therapy with adavosertib” value (shortened to “additive cytotoxic effect … with adavosertib”) [1, 3] was “significant additive cytotoxic effects”, the “additive cytotoxic effect … with palbociclib” value [1, 3] was “significant additive cytotoxic effects” and the Ratio single/combo ([1]; HT29, IC50 monotherapy / IC50 with 100 nM AZD7762) was 95.61. It also gave a Ratio single/combo ([1]; HT29, IC50 monotherapy / IC50 with 100 nM adavosertib) of 44.97, a Ratio single/combo ([1]; HT29, IC50 monotherapy / IC50 with 130 nM AZD7762) of 105.70 and a Ratio single/combo ([1]; HT29, IC50 monotherapy / IC50 with 130 nM adavosertib) of 95.54. The Ratio single/combo ([1]; HT29, IC50 monotherapy / IC50 with 160 nM AZD7762) was 107.78, the Ratio single/combo ([1]; HT29, IC50 monotherapy / IC50 with 160 nM adavosertib) was 114.24 and the IC50 ([1]; HT-29, 72 h, HT29, monotherapy) was 1370 nM. For the same molecule, the IC50 ([1]; HT-29, HT29, with 50 nM palbociclib (2 h pretreatment)) was 1060 nM, the IC50 ([1]; HT-29, HT29, with 100 nM AZD7762 (2 h pretreatment)) was 14.3 nM and the IC50 ([1]; HT-29, HT29, with 100 nM adavosertib (2 h pretreatment)) was 30.5 nM. For the same molecule, the IC50 ([1]; HT-29, HT29, with 130 nM AZD7762 (2 h pretreatment)) was 13 nM, the IC50 ([1]; HT-29, HT29, with 130 nM adavosertib (2 h pretreatment)) was 14.4 nM and the IC50 ([1]; HT-29, HT29, with 160 nM AZD7762 (2 h pretreatment)) was 12.7 nM. It also gave an IC50 ([1]; HT-29, HT29, with 160 nM adavosertib (2 h pretreatment)) of 12 nM, an IC50 ([1]; HT-29, HT29, with 1000 nM palbociclib (2 h pretreatment)) of 1740 nM and an IC50 ([1]; HT-29, HT29, with 5000 nM palbociclib (2 h pretreatment)) of 1570 nM. The “additive cytotoxic effect … with AZD7762” value ([2]; H460 (wild-type p53), AZD7762 160 nM) was “certain additive cytotoxic effects”, the “additive cytotoxic effect … with adavosertib” value [2, 4] was “did not exhibit any additive toxic effects” and the “additive cytotoxic effect … with palbociclib” value [2, 4] was “did not exhibit any significant additive cytotoxic effects”. For the same molecule, the “additive cytotoxic effect … with AZD7762” value [2, 5] was “not significant”, the “additive cytotoxic effect … with adavosertib” value [2, 5] was “not significant” and the “additive cytotoxic effect … with ceralasertib” value [2, 5] was “not significant”. The “additive cytotoxic effect … with AZD7762” value ([2]; H460 (wild-type p53), medium and high concentrations) was “certain additive cytotoxic effects”, the “additive cytotoxic effect … with ceralasertib” value ([2]; H460 (wild-type p53), medium or high concentration) was “certain additive cytotoxic effects” and the “additive cytotoxic effect … with adavosertib” value ([2]; H460 (wild-type p53), medium or high concentrations) was “certain additive cytotoxic effects”. The “additive cytotoxic effect … with AZD7762” value ([2]; H460 (wild-type p53), other concentrations than 160 nM AZD7762) was “did not exhibit any additive cytotoxic effects”, the Ratio single/combo ([2]; H460, IC50 monotherapy / IC50 with 0.5 nM AZD7762) was 1.20 and the Ratio single/combo ([2]; H460, IC50 monotherapy / IC50 with 0.5 nM adavosertib) was 1.24. It also gave a Ratio single/combo ([2]; H460, IC50 monotherapy / IC50 with 6.4 nM AZD7762) of 1.00, a Ratio single/combo ([2]; H460, IC50 monotherapy / IC50 with 6.4 nM adavosertib) of 0.90 and a Ratio single/combo ([2]; H460, IC50 monotherapy / IC50 with 160 nM AZD7762) of 3.81. It also gave a Ratio single/combo ([2]; H460, IC50 monotherapy / IC50 with 160 nM adavosertib) of 1.19, a Ratio single/combo ([2]; H460, IC50 monotherapy / IC50 with 800 nM adavosertib) of 1.41 and a Ratio combo/single ([2]; H460, IC50 with 0.05 nM palbociclib / IC50 monotherapy) of 1.08. It also gave a Ratio combo/single ([2]; H460, IC50 with 0.64 nM palbociclib / IC50 monotherapy) of 1.35, a Ratio combo/single ([2]; H460, IC50 with 400 nM palbociclib / IC50 monotherapy) of 2.55 and an IC50 ([2]; NCI-H460, 72 h, H460, monotherapy) of 4.08 nM. It also gave an IC50 ([2]; NCI-H460, H460, with 0.05 nM palbociclib (2 h pretreatment)) of 4.39 nM, an IC50 ([2]; NCI-H460, H460, with 0.5 nM AZD7762 (2 h pretreatment)) of 3.4 nM and an IC50 ([2]; NCI-H460, H460, with 0.5 nM adavosertib (2 h pretreatment)) of 3.29 nM. The IC50 ([2]; NCI-H460, H460, with 0.64 nM palbociclib (2 h pretreatment)) was 5.5 nM, the IC50 ([2]; NCI-H460, H460, with 6.4 nM AZD7762 (2 h pretreatment)) was 4.08 nM and the IC50 ([2]; NCI-H460, H460, with 6.4 nM adavosertib (2 h pretreatment)) was 4.53 nM. It also gave an IC50 ([2]; NCI-H460, H460, with 160 nM AZD7762 (2 h pretreatment)) of 1.07 nM, an IC50 ([2]; NCI-H460, H460, with 160 nM adavosertib (2 h pretreatment)) of 3.44 nM and an IC50 ([2]; NCI-H460, H460, with 400 nM palbociclib (2 h pretreatment)) of 10.4 nM. The IC50 ([2]; NCI-H460, H460, with 800 nM adavosertib (2 h pretreatment)) was 2.89 nM.
